# From patent US7696238B2, “Substituted benzo[d]isoxazol-3-yl amine compounds as analgesics” (Gruenenthal GmbH, priority 2005, dated 2010)
# Biological target: T1, KCNQ2/3 ion channel (KCNQ2/3-expressing CHO-K1 cells) (Homo sapiens, UniProt O43525+O43526)
# T1 construct: expressed in transfected cells; host or cells: CHO-K1
# Assay: Fluorescence assay (FLIPR instrument, membrane potential dye) for substances acting agonistically on the KCNQ2/3 ion channel
# Type: cell-based
# Conditions: difference between maximum and minimum values, agonistic action detected from a value of −40 (and below)
# Protocol: Pharmacological Test Methods I. Fluorescence Assay (FLIPR™ Instrument) for the Identification of Substances Acting Agonistically on the KCNQ2/3 Ion Channel
# On the day before the experiment, KCNQ2/3-expressing CHO-K1 cells and CHO-K1 empty strain cells were seeded out onto coated poly-D-lysine black/clear plates (Falcon/BD Company; Order No.: 356640) in a concentration of 20000 cells/100 μl MEM alpha, 50 ml FCS, 5.5 ml PIS/G/solution (100×) and then incubated for 20-24 hours in an incubator (37° C., 5% CO2). On the day of the experiment the HBSS/hepes working solution and the FMP/HBSS/hepes mixture (Membrane Potential Assay Kit Red (FMP), bulk format Cat. No. R8123) were initially prepared according to the following protocol:
# • 1000 ml 1× HBSS buffer (Hank's Balanced Salt Solution (1×) (Gibco; No. 14025)+10 ml hepes (1M stock solution, pH 7.4; hepes Na salt (Sigma Company; No. H7006-500 g; storage at 4° C. in a refrigerator) 2. 1× FMP/HBSS/hepes working solution: • 6 ml HBSS/hepes buffer are added to 5 ml of the FMP solution stored at −20° C. (preparation see below; thawing out at room temperature). The test substances (2 mM batch solution in 100% DMSO) contained in drug plates (Costar 96-well plates, catalogue No. 3795) were then diluted by adding HBSS/hepes buffer to a concentration of 30 μM (3× concentrated). The assay plates on which the cells grow were washed once with 200 μl HBSS/hepes (Cellwash Washer, Labsystems Company, catalogue No. 5161550) and the remaining volume was removed by tapping out the inverted plate twice. 100 μl of the FMP/HBSS/hepes working solution were then added in each case to the cell plates and incubated for 1 hour in the CO2 incubator at 37° C. and 5% CO2. The measurements are then carried out with a FLIPR III instrument from the Molecular Devices company (96-format, using the 540-590 nm band-pass filter in the #2 localization). In the experimental setup of the FLIPR software, filter #2 should be selected. The cell plates and the substance plates were fed alternately into the input stack. A signal test was carried out in each case with the cell plates before adding the substance. The test substances were then added via the pipetting unit of the FLIPR (added volume 50 μl, 3× concentrated, end concentration 10 μM) to the cavities of the cell plates in a total volume of 150 μl/well. The threshold data of the FLIPR program were as follows:
# The pipette tips were washed after each pipetting procedure 3 times with 1% DMSO in water. The times of the measurement intervals after addition of the test substances are as follows:
# Total measurement time: 6 min/plate
# The test samples were evaluated by calculating the difference between the maximum and minimum values. EC50/IC50 values are calculated using the Graph Pad Prism software.
# Preparation of the membrane potential loading buffer (membrane potential assay kit red (FMP), bulk format cat. No. R8123) according to the manufacturer's instructions:
# 10 ml of the 10× assay buffer (component B) were diluted with 90 ml of sterile water and then adjusted to pH 7.4 with 1.0N NaOH (1× assay buffer). One vessel with the FLIPR membrane potential assay component A was completely dissolved in 100 ml 1× assay buffer and thoroughly mixed for 10 minutes with a magnetic stirrer. 5 ml aliquots were then stored at −20° C. (storage shelf life ca. 2 weeks).
# An agonistic action can be detected starting from a value of −40 (and below).
row,SMILES,"FLIPR membrane potential fluorescence change (ΔF %, max minus min); negative values indicate KCNQ2/3 agonism [%]"
1,"S=C(Nc1noc2ccccc12)NC1CCCCC1 [Example 23, 1-benzo[d]isoxazol-3-yl-3-cyclohexyl-thiourea]",−40
2,"C=CCNC(=S)Nc1noc2c(F)cccc12 [Example 123, 1-allyl-3-(7-fluorobenzo[d]-isoxazol-3-yl)-thiourea]",−55
3,"Fc1cccc2c(NCc3cccc(OC(F)(F)F)c3)noc12 [Example 203, (7-fluorobenzo[d]isoxazol-3-yl)-(3-trifluoromethoxy-benzyl)-amine]",−49
4,"Cc1cc(C)cc(NC(=S)Nc2noc3cccc(N(C)C)c23)c1 [Example 63, 1-(4-dimethylamino-benzo[d]isoxazol-3-yl)-3-(3,5-dimethylphenyl)-thiourea]",−56
5,"Fc1ccc2onc(NC(=S)NCC3CCCO3)c2c1 (stereo not drawn) [Example 98, 1-(5-fluorobenzo[d]isoxazol-3-yl)-3-(tetrahydrofuran-2-yl-methyl)-thiourea]",−43.5
6,"CC(NC(=S)Nc1noc2cccc(Cl)c12)c1ccccc1 (stereo not drawn) [Example 53, 1-(4-chlorobenzo[d]isoxazol-3-yl)-3-(1-phenyl-ethyl)-thiourea]",−42.5
7,"Cc1ccc(NC(=S)Nc2noc3c(F)cccc23)cc1 [Example 124, 1-(7-fluorobenzo[d]isoxazol-3-yl)-3-p-tolyl-thiourea]",−50
8,"Cc1cc(C)cc(CNc2noc3cc(F)ccc23)c1 [Example 169, (3,5-dimethylbenzyl)-(6-fluorobenzo[d]isoxazol-3-yl)-amine]",−63.25
9,"Fc1ccc2c(NCc3ccc(SC(F)(F)F)cc3)noc2c1 [Example 172, (6-fluorobenzo[d]isoxazol-3-yl)-(4-trifluoromethyl-sulfanyl-benzyl)-amine]",−68
10,"COc1ccc(NC(=S)Nc2noc3cccc(OCC(F)(F)F)c23)cc1 [Example 84, 1-(4-methoxyphenyl)-3-[4-(2,2,2-trifluoroethoxy)-benzo[d]isoxazol-3-yl]-thiourea]",−40
11,"Cc1ccc(NC(=S)Nc2noc3cccc(N(C)C)c23)cc1 [Example 55, 1-(4-dimethylamino-benzo[d]-isoxazol-yl)-3-p-tolyl-thiourea]",−84
12,"COc1ccc(Cl)cc1NC(=S)Nc1noc2cccc(OC)c12 [Example 132, 1-(5-chloro-2-methoxyphenyl)-3-(4-methoxybenzo[d]isoxazol-3-yl)-thiourea]",−45
13,"CCCCCCCCCNC(=S)Nc1noc2cccc(OCc3ccc(C)cc3)c12 [Example 87, 1-[4-(4-methylbenzyloxy)-benzo[d]isoxazol-3-yl]-3-nonyl-thiourea]",−66.5
14,"COc1ccc(NC(=S)Nc2noc3cc(Cl)ccc23)cc1 [Example 106, 1-(6-chlorobenzo[d]isoxazol-3-yl)-3-(4-methoxyphenyl)-thiourea]",−59
15,"CC(C)CNC(=S)Nc1noc2cccc(N(C)C)c12 [Example 54, 1-(4-dimethylamino-benzo[d]isoxazol-3-yl)-3-isobutyl-thiourea]",−64
16,"COCCCNC(=S)Nc1noc2cccc(N(C)C)c12 [Example 65, 1-(4-dimethylamino-benzo[d]isoxazol-3-yl)-3-(3-methoxypropyl)-thiourea]",−79
17,"COc1cccc2onc(NC(=S)NCc3ccc(Cl)cc3)c12 [Example 129, 1-(4-chlorobenzyl)-3-(4-methoxy-benzo[d)isoxazol-3-yl)-thiourea]",−42
18,"CN(C)c1ccc(NC(=S)Nc2noc3cccc(OCC(F)(F)F)c23)cc1 [Example 92, 1-(4-dimethylaminophenyl)-3-[4-(2.2,2-trifluoroethoxy)-benzo[d]isoxazol-3-yl]-thiourea]",−51
19,"CN(C)c1cccc2onc(NC(=S)NCc3ccccc3)c12 [Example 64, 1-benzyl-3-(4-dimethylamino-benzo[d]isoxazol-3-yl)-thiourea]",−52
20,"COc1ccc(NC(=S)Nc2noc3cc(Br)ccc23)cc1OC [Example 108, 1-(6-bromobenzo[d]isoxazol-3-yl)-3-(3.4-dimethoxyphenyl)-thiourea]",−53.5
21,"COc1ccc(NC(=S)Nc2noc3cccc(OC)c23)c(OC)c1 [Example 134, 1-(2,4-dimethoxyphenyl)-3-(4-methoxybenzo[d]isoxazol-3-yl)-thiourea]",−42
22,"Cc1ccc(COc2cccc3onc(NC(=S)NC4CCCCC4)c23)cc1 [Example 90, 1-cyclohexyl-3-[4-(4-methylbenzyloxy)-benzo[d]isoxazol-3-yl]-thiourea]",−41.5
23,"COc1cc(NC(=S)Nc2noc3cccc(OCC(F)(F)F)c23)cc(OC)c1OC [Example 135, 1-[4-(2,2,2-trifluoroethoxy)-benzo[d]isoxazol-3-yl]-3-(3,4,5-trimethoxyphenyl)-thiourea]",−47.5
24,"Cc1cccc(Cl)c1NC(=S)Nc1noc2cc(F)ccc12 [Example 113, 1-(2-chloro-6-methylphenyl)-3-(6-fluorobenzo[d]isoxazol-3-yl)-thiourea]",−55
25,"Cc1ccc2onc(NC(=S)Nc3ccccc3C(C)C)c2c1 [Example 95, 1-(2-isopropylphenyl)-3-(5-methyl-benzo[d]isoxazol-3-yl)-thiourea]",−64
26,"CCc1ccccc1NC(=S)Nc1noc2ccc(Br)cc12 [Example 100, 1-(5-bromobenzo[d]isoxazol-3-yl)-3-(2-ethylphenyl)-thiourea]",−42
27,COc1cccc(NC(=S)Nc2noc3cc(Cl)ccc23)c1 [Example 107],−80
28,"CC(C)c1cccc(C(C)C)c1NC(=S)Nc1noc2cc(F)ccc12 [Example 114, 1-(2,6-diisopropylphenyl)-3-(6-fluorobenzo[d]isoxazol-3-yl)-thiourea]",−54
29,"COC(=O)C(C)NC(=S)Nc1noc2cccc(F)c12 (stereo not drawn) [Example 50, 2-[3-(4-fluoro-benzo[d]isoxazol-3-yl)-thioureido]-propionic acid methyl ester]",−59.5
30,"Cc1ccc2onc(NC(=S)Nc3ccc(C(F)(F)F)cc3)c2c1 [Example 96, 1-(5-methylbenzo[d]isoxazol-3-yl)-3-(4-trifluoromethylphenyl)-thiourea]",−57
